Laboratory results published in the Kinase Knowledgebase extract (Sharma et al. 2016).
pIC50: −log10 of the molar value. Several values for one entry are separate records, joined by “and”; a condition that tells them apart may be missing. Equal values may be shown once.

Key:
EGFR [1] = biological target: EGFR (UniProt P00533)
EGFR [2] = biological target: EGFR (UniProt P00533); settings: various cell lines

Chain of EGFR (P00533 whole entry, looked up): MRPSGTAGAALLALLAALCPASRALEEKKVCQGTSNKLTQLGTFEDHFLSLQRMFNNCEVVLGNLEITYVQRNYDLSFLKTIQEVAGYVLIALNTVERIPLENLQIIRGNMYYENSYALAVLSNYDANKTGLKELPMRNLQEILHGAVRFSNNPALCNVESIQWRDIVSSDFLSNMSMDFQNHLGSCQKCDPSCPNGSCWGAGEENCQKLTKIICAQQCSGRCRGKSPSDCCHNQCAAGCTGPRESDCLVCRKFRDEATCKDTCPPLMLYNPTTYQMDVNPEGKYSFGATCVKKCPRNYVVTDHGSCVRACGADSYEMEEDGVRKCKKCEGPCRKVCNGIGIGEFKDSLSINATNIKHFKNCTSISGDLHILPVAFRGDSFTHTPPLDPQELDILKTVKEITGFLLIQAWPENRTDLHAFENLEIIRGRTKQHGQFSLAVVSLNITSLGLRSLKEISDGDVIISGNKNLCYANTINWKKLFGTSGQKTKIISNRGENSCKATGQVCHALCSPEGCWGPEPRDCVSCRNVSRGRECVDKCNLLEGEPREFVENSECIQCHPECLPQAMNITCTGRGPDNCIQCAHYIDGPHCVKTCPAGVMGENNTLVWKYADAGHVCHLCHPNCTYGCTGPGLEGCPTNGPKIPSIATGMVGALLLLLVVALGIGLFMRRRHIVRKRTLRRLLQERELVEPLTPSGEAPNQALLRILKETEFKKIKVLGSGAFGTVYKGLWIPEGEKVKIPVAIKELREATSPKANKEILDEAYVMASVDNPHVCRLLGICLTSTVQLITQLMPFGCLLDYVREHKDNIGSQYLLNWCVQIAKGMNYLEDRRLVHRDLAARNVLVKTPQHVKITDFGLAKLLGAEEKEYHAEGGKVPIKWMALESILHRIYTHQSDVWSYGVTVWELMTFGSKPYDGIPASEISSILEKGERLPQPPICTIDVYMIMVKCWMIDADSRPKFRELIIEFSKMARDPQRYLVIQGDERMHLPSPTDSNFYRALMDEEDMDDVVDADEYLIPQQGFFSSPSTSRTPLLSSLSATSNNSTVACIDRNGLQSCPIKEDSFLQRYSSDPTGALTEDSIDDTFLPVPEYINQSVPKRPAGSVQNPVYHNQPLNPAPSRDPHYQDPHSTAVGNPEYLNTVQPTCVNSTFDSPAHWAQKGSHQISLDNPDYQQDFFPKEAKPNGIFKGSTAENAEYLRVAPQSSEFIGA

Row | Compound | pIC50 (EGFR [1]) | pIC50 (EGFR [2])
1 | CCN(CC)CC(O)CNc1cc2c(Nc3cccc(Br)c3)ncnc2cn1 (centres undefined) | – | 7.55
2 | CNc1cc2ncnc(Nc3cccc(Br)c3)c2cn1 | 10.04 | –
3 | Brc1cccc(Nc2ncnc3cnc(NCCN4CCOCC4)cc23)c1 | – | 8.10
4 | CN(C)CCNc1cc2c(Nc3cccc(Br)c3)ncnc2cn1 | – | 7.32
5 | Brc1cccc(Nc2ncnc3cc(NCCCN4CCOCC4)ncc23)c1 | 8.13 | 7.42
6 | CN(C)Cc1c[nH]c2cc3ncnc(Nc4cccc(Br)c4)c3cc12 | – | 8.01
7 | COc1cc2ncnc(NCc3cccc(Br)c3)c2cc1OC | 8.00 | –
8 | COc1cc2nccc(Oc3cccc(Br)c3)c2cc1OC | – | 5.60
9 | COc1cc2ncnc(N[C@@H](C)c3cccc(Br)c3)c2cc1OC | 5.42 | –
10 | C/C(O)=C(/C#N)C(=O)Nc1ccc(C(F)(F)F)cc1 | – | 4.46
11 | Brc1cccc(Nc2ncnc3cc4[nH]ccc4cc23)c1 | 9.36 | 7.70
12 | CNc1cc2c(Nc3cccc(Br)c3)ncnc2cn1 | – | 7.89
13 | COc1cc2ncnc(N(C)c3cccc(C)c3)c2cc1OC | 4.92 | –
14 | CN(C)CCCCNc1cc2ncnc(Nc3cccc(Br)c3)c2cn1 | 8.72 | 8.09
15 | Nc1nc(N)c2c(Nc3cccc(Cl)c3)n[nH]c2n1 | 6.66 | –
16 | COc1cc2ncnc(Oc3cccc(Br)c3)c2cc1OC | – | 7.15
17 | Brc1cccc(Nc2ncnc3cnc(NCCc4c[nH]cn4)nc23)c1 | – | 8.29
18 | CNc1ncc2ncnc(Nc3cccc(Br)c3)c2n1 | – | 7.52
19 | COc1cc2ncnc(N[C@H](C)c3cccc(Br)c3)c2cc1OC | 8.80 | –
20 | O=CN/C=C/c1cc(O)ccc1O | 6.44 | –
21 | COc1cc2ncnc(Nc3ccc(F)c(Br)c3)c2cc1OCCCN1CCOCC1 | 7.70 | –
22 | Brc1cccc(Nc2ncnc3cc4cn[nH]c4cc23)c1 | 9.47 | –
23 | Cc1cccc(N(C)c2ncnc3[nH]ncc23)c1 | < 4.30 | –
24 | Brc1cccc(Nc2ncnc3cc4[nH]cc(CN5CCOCC5)c4cc23)c1 | – | 8.02
25 | Brc1cccc(Nc2ncnc3cc4[nH]ncc4cc23)c1 | 9.36 | –
26 | CNC(=O)c1c([Se][Se]c2c(C(=O)NC)c3ccccc3n2C)n(C)c2ccccc12 | 5.21 | –
27 | O=C1NC(=O)c2cc(NC3CCCCC3)c(NC3CCCCC3)cc21 | < 3.00 | –

Results, then the molecule that gave them:

Row | pIC50 (EGFR [1]) | pIC50 (EGFR [2]) | Compound
28 | 7.70 and 7.64 | – | Brc1cccc(Nc2ncnc3ccccc23)c1
29 | 4.70 | – | Cn1c(SSc2c(C(=O)Nc3ccccc3)c3ccccc3n2C)c(C(=O)Nc2ccccc2)c2ccccc21
30 | 8.00 | – | COc1cc2ncnc(NC3CC3c3ccccc3)c2cc1OC (centres undefined)
31 | 7.68 | – | C=CC(=O)Nc1ccc2c(c1)sc1c(Nc3cccc(Br)c3)ncnc12
32 | 8.10 | – | COc1cccc(CNc2n[nH]c3ncnc(Nc4cccc(Cl)c4)c23)c1
33 | 8.22 | – | Clc1cccc(Nc2ncnc3[nH]c4ccccc4c23)c1
34 | – | 7.80 | Brc1cccc(Nc2ncnc3cc4c(ccn4CCN4CCOCC4)cc23)c1
35 | 5.00 | – | CC(=O)Oc1cccc2c1c(C(=O)Nc1ccccc1)c(SSc1c(C(=O)Nc3ccccc3)c3c(OC(C)=O)cccc3n1C)n2C
36 | 7.64 | – | C=CC(=O)Nc1ccc2sc3c(Nc4cccc(Br)c4)ncnc3c2c1
37 | 7.48 | – | Clc1cccc(Nc2ncnc3[nH]nc(Nc4cccc(Cl)c4)c23)c1
38 | 8.22 | – | COc1cc2ncnc(Nc3cncc4ccccc34)c2cc1OC
39 | – | < 7.52 | COc1cc2cc(-c3ccccc3)c(Cl)nc2cc1OC
40 | 8.52 | – | COc1cc2c(NC3CC3c3ccccc3)ncnc2cc1OCCCN(C)C (centres undefined)
41 | 5.82 | – | Cc1cccc2c(CCC(=O)O)c(SSc3[nH]c4c(C)cccc4c3CCC(=O)O)[nH]c12
42 | 8.70 | – | Nc1ccc(-c2n[nH]c3ncnc(Nc4cccc(Cl)c4)c23)cc1
43 | 4.74 | – | COC(=O)Cc1c(SSc2[nH]c3ccccc3c2CC(=O)OC)[nH]c2ccccc12
44 | 8.85 | 7.62 | C=CC(=O)Nc1cccc2c1sc1c(Nc3cccc(Br)c3)ncnc12
45 | 7.40 and 7.57 | – | Clc1cccc(Nc2ncnc3ccccc23)c1
